# Patent US20260242418A1, “CYCLIC PEPTIDES WITH ANTIBACTERIAL ACTIVITY AGAINST MULTIDRUG RESISTANT (MDR) PATHOGENS” (priority 2022, published 2026)
# Assays:
# human erythrocytes = assay: in vitro; assay type: cell-based; conditions: red cells of human
# Procedure: (§1) A 50% haematocrit solution (1:1 PBS 1×, P5493, 1 L, Sigma) was obtained from a commercially available human blood sample by performing 3 consecutive washes with PBS 1× and centrifuging at 2600 rpm for 10 minutes between washes. A final 4% erythrocyte solution was prepared with PBS 1× and chilled on ice until used.
# (§2) Colistin and SEQ ID NO: 4 (PLP-3) stocks were prepared at 256 μg/mL in MHB and left at 4 C until used.
# (§3) 96-well, round bottom plates were filled with 50 μL PBS 1× but for the haemolysis controls, which were left empty. 50 μL of each antimicrobial were added to the first column of each plate and serial dilution was performed. Then 50 μL of 4% erythrocyte solution were added to all wells of the plate and gently resuspended. Positive control consisted in PBS 1× and erythrocytes while haemolysis control was settled at 1% Triton™ X-100 (TX-100, 9002-93-1, 100 mL, Sigma) and erythrocytes.
# (§4) Plates were incubated for 4 h at 37° C. and then centrifuged at 1500 rpm 5 min. […] An EPOCH™ spectrophotometer was used to read the plates at 450 nm.
# (§5) Haemolysis assays of human erythrocytes were done using 1% TX-100 as a control for total haemolysis and absorbance values of PLP-3 were represented in relation to total haemolysis (TX-100 values).
# in vitro = assay type: cell-based, human; conditions: human, haemolysis % relative to 1% TX-100 at 64 ug/mL PLP-3
# Procedure: as §1, §2, §3, §4, §5
# A. baumannii ATCC 19606 = assay: Time-kill curves; assay type: cell-based, Acinetobacter baumannii
# Procedure: Time-kill curves (TKC) determine the in vitro antimicrobial activity of a compound, monitoring the bacterial growth over a certain period of time.
# This assay was performed for two Acinetobacter baumannii strains (a clinical strain and ATCC 19606 strain) and one Pseudomonas aeruginosa ATCC 27853 strain, monitoring its growth during 24 hours at different PLP-3 (SEQ ID NO: 4) concentrations: MIC, 2×MIC, 4×MIC, 8×MIC. Moreover, in each TKC assay a negative and a positive growth control was stablished.
# In different 13MI tubes, a certain concentration of PLP-3 peptide, Mueller-Hinton Broth (MHB, 1214, Condalab) and a fixed inoculum concentration were added. The final inoculum concentration in each tube was […]. Tubes were incubated at 37° C. at 180 rpm during 24 hours. Aliquots of the liquid culture were taken at different times: 0 h, 10 minutes, 30 minutes, 1 h, 2 h, 4 h, 8 h and 24 h. For each taken aliquot, serial dilutions with Phosphate Saline Buffer 1× (PBS 1×) were made and streaked in Luria-Bertani Agar (LB, 1083, Condalab). LB Agar plates were incubated at 37° C. during 18-22 hours. Grown colonies in LB Agar were counted in order to quantify the inoculum in each time period.
# Three biological replicates were performed for each strain, and the mean and standard deviation was determined each time.
# Pseudomonas aeruginosa = assay type: cell-based
# Excerpt: Minimum Inhibitory Concentration (MIC) of a peptide of SEQ D NO: 4 (abbreviated PLP-3) and colistin against a collection of clinically relevant and commercially available bacterial strains was obtained via broth microdilution. The protocol for antimicrobial activity determination, detailed below, consisted in a modification of Clinical & Laboratory Standards Institute (CLSI) Guidelines.
# MIC is the value defined as the lowest concentration of an antimicrobial, in these tests either PLP-3 or colistin, which inhibits the macroscopic growth of a bacterial strain after 18-22 h incubation at 37° C. The results from these assays are obtained via visual identification of the bacterial bottom at the end of the wells of the testing plate. Since the wells contain decreasing concentrations of the compounds, the final result is indicated as a concentration, MIC, expressed in μg/mL of the agent (in this case PLP-3 or colistin).
# Bacterial strains were streaked in Columbia Agar plates (Columbia Agar with 5% Sheep Blood 90 mm Stacker plates, BD) and incubated overnight at 37° C. Polypropylene round bottomed 96-well plates were filled with 50 μL/well of Mueller-Hinton Broth (MHB, CM0405, 500 g, ThermoFisher Scientific™ Oxoid™) and 50 μL of either colistin or PLP-3 (at 4× the chosen initial concentration of the test) were added to the first well of each row of the plate followed by serial dilutions up until the 10th column of the plate.
# Finally, strain inoculums were prepared by diluting 1:100 0.5 McFarland solutions in MHB. Plates were then inoculated with 50 μL of the inoculums and covered with film before 18 to 22 h incubation at 37 C.
# Three biological and three technical replicates were performed per strain.
# Broth microdilution testing of 15 strains of each species provided MIC50 and […] values (Table 4). Strains were either from clinical origin, relevant to current clinical situation, or commercially available strains belonging to the American Type Culture Collection (ATCC), namely: A. baumannii 17978 and 19606, K. pneumoniae 13883 and P. aeruginosa 27853.
# This panel represents an example of relevant MDR, colistin resistant and colistin susceptible strains from which to compare results. The minimum inhibitory concentration (MIC) is the lowest concentration of a chemical, usually a drug, which prevents visible growth of a bacterium or bacteria. MIC50 represents the antimicrobial concentration value that inhibits the growth of 50% of the bacterial strains and […] of each species from the tested panel of strains. Being colistin both a peptide and a last-resource antibiotic, it was included in these assays for comparison against a commercially available antibiotic.
# P. aeruginosa ATCC 27853 strain (commercially available from the American Type Collection Culture) was used as control by performing MICs to colistin and PLP-3 in all broth microdilution assays
# [1] = panel of 15 P. aeruginosa strains
structure (smiles),measurement,setting,value
"CC(C)C[C@@H]1NC(=O)[C@H](CCCNC(=N)N)NC(=O)[C@H](CCCNC(=N)N)NC(=O)[C@H](CCCNC(=N)N)NC(=O)[C@H]2CCCN2C(=O)[C@H](CCCNC(=N)N)NC(=O)[C@H](CCCNC(=N)N)NC(=O)[C@H](C(C)C)NC(=O)[C@@H]2CSSC[C@H](NC1=O)C(=O)N[C@@H](Cc1ccccc1)C(=O)N[C@@H](C(C)C)C(=O)N[C@@H](CCCNC(=N)N)C(=O)N1CCC[C@@H]1C(=O)N[C@@H](CCCCN)C(=O)N[C@@H](Cc1ccccc1)C(=O)N[C@@H](C(C)C)C(=O)N[C@@H](C(C)C)C(=O)N2 [PLP-3, cyclo[RRRLCFVRPKFVVCVRRP]]",IC50 from the haemolysis curve,human erythrocytes,48.53 µg/mL
same,"hemolysis at 4 h, 64 ug/mL",in vitro,62.6%
same,log(CFU/mL) Mean,"A. baumannii ATCC 19606; 2xMIC (4 μg/mL), 0.00 h",5.87 log(CFU/mL)
same,log(CFU/mL) Mean,"A. baumannii ATCC 19606; 2xMIC (4 μg/mL), 0.17 h",5.54 log(CFU/mL)
same,log(CFU/mL) Mean,"A. baumannii ATCC 19606; 2xMIC (4 μg/mL), 0.50 h",4.91 log(CFU/mL)
same,log(CFU/mL) Mean,"A. baumannii ATCC 19606; 2xMIC (4 μg/mL), 1.00 h",3.14 log(CFU/mL)
same,log(CFU/mL) Mean,"A. baumannii ATCC 19606; 2xMIC (4 μg/mL), 2.00 h",2.18 log(CFU/mL)
same,log(CFU/mL) Mean,"A. baumannii ATCC 19606; 2xMIC (4 μg/mL), 4.00 h",2.58 log(CFU/mL)
same,log(CFU/mL) Mean,"A. baumannii ATCC 19606; 2xMIC (4 μg/mL), 8.00 h",2.56 log(CFU/mL)
same,log(CFU/mL) Mean,"A. baumannii ATCC 19606; 2xMIC (4 μg/mL), 24.00 h",3.30 log(CFU/mL)
same,log(CFU/mL) Mean,"A. baumannii ATCC 19606; 4xMIC (8 μg/mL), 0.00 h",5.87 log(CFU/mL)
same,log(CFU/mL) Mean,"A. baumannii ATCC 19606; 4xMIC (8 μg/mL), 0.17 h",5.12 log(CFU/mL)
same,log(CFU/mL) Mean,"A. baumannii ATCC 19606; 4xMIC (8 μg/mL), 0.50 h",3.79 log(CFU/mL)
same,log(CFU/mL) Mean,"A. baumannii ATCC 19606; 4xMIC (8 μg/mL), 1.00 h",0.94 log(CFU/mL)
same,log(CFU/mL) Mean,"A. baumannii ATCC 19606; 4xMIC (8 μg/mL), 2.00 h",0.00 log(CFU/mL)
same,log(CFU/mL) Mean,"A. baumannii ATCC 19606; 4xMIC (8 μg/mL), 4.00 h",0.00 log(CFU/mL)
same,log(CFU/mL) Mean,"A. baumannii ATCC 19606; 4xMIC (8 μg/mL), 8.00 h",0.00 log(CFU/mL)
same,log(CFU/mL) Mean,"A. baumannii ATCC 19606; 4xMIC (8 μg/mL), 24.00 h",0.00 log(CFU/mL)
same,log(CFU/mL) Mean,"A. baumannii ATCC 19606; 8xMIC (16 μg/mL), 0.00 h",5.87 log(CFU/mL)
same,log(CFU/mL) Mean,"A. baumannii ATCC 19606; 8xMIC (16 μg/mL), 0.17 h",3.41 log(CFU/mL)
same,log(CFU/mL) Mean,"A. baumannii ATCC 19606; 8xMIC (16 μg/mL), 0.50 h",0.87 log(CFU/mL)
same,log(CFU/mL) Mean,"A. baumannii ATCC 19606; 8xMIC (16 μg/mL), 1.00 h",0.00 log(CFU/mL)
same,log(CFU/mL) Mean,"A. baumannii ATCC 19606; 8xMIC (16 μg/mL), 2.00 h",0.00 log(CFU/mL)
same,log(CFU/mL) Mean,"A. baumannii ATCC 19606; 8xMIC (16 μg/mL), 4.00 h",0.00 log(CFU/mL)
same,log(CFU/mL) Mean,"A. baumannii ATCC 19606; 8xMIC (16 μg/mL), 8.00 h",0.00 log(CFU/mL)
same,log(CFU/mL) Mean,"A. baumannii ATCC 19606; 8xMIC (16 μg/mL), 24.00 h",0.00 log(CFU/mL)
same,log(CFU/mL) Mean,"A. baumannii ATCC 19606; MIC (2 μg/mL), 0.00 h",5.87 log(CFU/mL)
same,log(CFU/mL) Mean,"A. baumannii ATCC 19606; MIC (2 μg/mL), 0.17 h",5.85 log(CFU/mL)
same,log(CFU/mL) Mean,"A. baumannii ATCC 19606; MIC (2 μg/mL), 0.50 h",5.43 log(CFU/mL)
same,log(CFU/mL) Mean,"A. baumannii ATCC 19606; MIC (2 μg/mL), 1.00 h",4.01 log(CFU/mL)
same,log(CFU/mL) Mean,"A. baumannii ATCC 19606; MIC (2 μg/mL), 2.00 h",2.39 log(CFU/mL)
same,log(CFU/mL) Mean,"A. baumannii ATCC 19606; MIC (2 μg/mL), 4.00 h",3.05 log(CFU/mL)
same,log(CFU/mL) Mean,"A. baumannii ATCC 19606; MIC (2 μg/mL), 8.00 h",3.85 log(CFU/mL)
same,log(CFU/mL) Mean,"A. baumannii ATCC 19606; MIC (2 μg/mL), 24.00 h",5.17 log(CFU/mL)
same,bactericidal or bacteriostatic activity,"A. baumannii ATCC 19606; time-kill curves over 24 hours, MIC to 8xMIC",bactericidal effect
same,MIC range,Pseudomonas aeruginosa,1 to 8 µg/mL
same,MIC50,Pseudomonas aeruginosa; [1],4 µg/mL
same,MIC90,Pseudomonas aeruginosa; [1],8 µg/mL
